Results published in US20070191291A1, “Compound antibacterial drugs comprising n-acetyl-d-glucosamine” (priority 2003, published 2007).

Tested on: E. coli
Assay: Test Example 1: inducing E. coli CGC with N-acetyl-D-glucosamine and antibiotics in different ratios (K-B method, microscopy)
Format: cell-based

CC(=O)N[C@@H]1[C@@H](O)[C@H](O)[C@@H](CO)O[C@H]1O [Compound (I), N-acetyl-D-glucosamine] was tested, and the CGC formation (Compound (I) 150 mg, macrolide (spiramycin) 500 mg) was “− (if cell length was not greater than 50 μm and cell number was within the range from 0 to 4 in each visual field, it was deemed as CGC negative and was marked with “−”)”, the CGC formation (Compound (I) 150 mg, macrolide (spiramycin) 700 mg) was “− (if cell length was not greater than 50 μm and cell number was within the range from 0 to 4 in each visual field, it was deemed as CGC negative and was marked with “−”)” and the CGC formation (Compound (I) 150 mg, macrolide (spiramycin) 900 mg) was “− (if cell length was not greater than 50 μm and cell number was within the range from 0 to 4 in each visual field, it was deemed as CGC negative and was marked with “−”)”. For the same compound, the CGC formation (Compound (I) 150 mg, macrolide (spiramycin) 1100 mg) was “+ (If cell length was more than 50 μm and cell number was more than 5 in each visual field, it was deemed as CGC positive and was marked with “+”)”, the CGC formation (Compound (I) 150 mg, macrolide (spiramycin) 1300 mg) was “+ (If cell length was more than 50 μm and cell number was more than 5 in each visual field, it was deemed as CGC positive and was marked with “+”)” and the CGC formation (Compound (I) 150 mg, macrolide (spiramycin) 1500 mg) was “+ (If cell length was more than 50 μm and cell number was more than 5 in each visual field, it was deemed as CGC positive and was marked with “+”)”. The CGC formation (Compound (I) 150 mg, quinoline (ciprofloxacin, norfloxacin) 150 mg) was “− (if cell length was not greater than 50 μm and cell number was within the range from 0 to 4 in each visual field, it was deemed as CGC negative and was marked with “−”)”, the CGC formation (Compound (I) 150 mg, quinoline (ciprofloxacin, norfloxacin) 200 mg) was “− (if cell length was not greater than 50 μm and cell number was within the range from 0 to 4 in each visual field, it was deemed as CGC negative and was marked with “−”)” and the CGC formation (Compound (I) 200 mg, aminoglycoside (kanamycin, gentamycin) 50 mg) was “− (if cell length was not greater than 50 μm and cell number was within the range from 0 to 4 in each visual field, it was deemed as CGC negative and was marked with “−”)”. The CGC formation (Compound (I) 200 mg, aminoglycoside (kanamycin, gentamycin) 100 mg) was “− (if cell length was not greater than 50 μm and cell number was within the range from 0 to 4 in each visual field, it was deemed as CGC negative and was marked with “−”)”, the CGC formation (Compound (I) 200 mg, aminoglycoside (kanamycin, gentamycin) 150 mg) was “− (if cell length was not greater than 50 μm and cell number was within the range from 0 to 4 in each visual field, it was deemed as CGC negative and was marked with “−”)” and the CGC formation (Compound (I) 200 mg, aminoglycoside (kanamycin, gentamycin) 200 mg) was “− (if cell length was not greater than 50 μm and cell number was within the range from 0 to 4 in each visual field, it was deemed as CGC negative and was marked with “−”)”. For the same compound, the CGC formation (Compound (I) 200 mg, aminoglycoside (kanamycin, gentamycin) 300 mg) was “− (if cell length was not greater than 50 μm and cell number was within the range from 0 to 4 in each visual field, it was deemed as CGC negative and was marked with “−”)”, the CGC formation (Compound (I) 200 mg, aminoglycoside (kanamycin, gentamycin) 400 mg) was “+ (If cell length was more than 50 μm and cell number was more than 5 in each visual field, it was deemed as CGC positive and was marked with “+”)” and the CGC formation (Compound (I) 200 mg, aminoglycoside (kanamycin, gentamycin) 500 mg) was “+ (If cell length was more than 50 μm and cell number was more than 5 in each visual field, it was deemed as CGC positive and was marked with “+”)”. The CGC formation (Compound (I) 200 mg, macrolide (spiramycin) 300 mg) was “− (if cell length was not greater than 50 μm and cell number was within the range from 0 to 4 in each visual field, it was deemed as CGC negative and was marked with “−”)”, the CGC formation (Compound (I) 200 mg, macrolide (spiramycin) 500 mg) was “− (if cell length was not greater than 50 μm and cell number was within the range from 0 to 4 in each visual field, it was deemed as CGC negative and was marked with “−”)” and the CGC formation (Compound (I) 200 mg, macrolide (spiramycin) 700 mg) was “− (if cell length was not greater than 50 μm and cell number was within the range from 0 to 4 in each visual field, it was deemed as CGC negative and was marked with “−”)”. For the same compound, the CGC formation (Compound (I) 200 mg, macrolide (spiramycin) 900 mg) was “− (if cell length was not greater than 50 μm and cell number was within the range from 0 to 4 in each visual field, it was deemed as CGC negative and was marked with “−”)”, the CGC formation (Compound (I) 200 mg, macrolide (spiramycin) 1100 mg) was “− (if cell length was not greater than 50 μm and cell number was within the range from 0 to 4 in each visual field, it was deemed as CGC negative and was marked with “−”)” and the CGC formation (Compound (I) 200 mg, macrolide (spiramycin) 1300 mg) was “+ (If cell length was more than 50 μm and cell number was more than 5 in each visual field, it was deemed as CGC positive and was marked with “+”)”. The CGC formation (Compound (I) 200 mg, macrolide (spiramycin) 1500 mg) was “+ (If cell length was more than 50 μm and cell number was more than 5 in each visual field, it was deemed as CGC positive and was marked with “+”)”, the CGC formation (Compound (I) 250 mg, aminoglycoside (kanamycin, gentamycin) 50 mg) was “− (if cell length was not greater than 50 μm and cell number was within the range from 0 to 4 in each visual field, it was deemed as CGC negative and was marked with “−”)” and the CGC formation (Compound (I) 250 mg, aminoglycoside (kanamycin, gentamycin) 100 mg) was “− (if cell length was not greater than 50 μm and cell number was within the range from 0 to 4 in each visual field, it was deemed as CGC negative and was marked with “−”)”. For the same compound, the CGC formation (Compound (I) 250 mg, aminoglycoside (kanamycin, gentamycin) 150 mg) was “− (if cell length was not greater than 50 μm and cell number was within the range from 0 to 4 in each visual field, it was deemed as CGC negative and was marked with “−”)”, the CGC formation (Compound (I) 250 mg, aminoglycoside (kanamycin, gentamycin) 200 mg) was “− (if cell length was not greater than 50 μm and cell number was within the range from 0 to 4 in each visual field, it was deemed as CGC negative and was marked with “−”)” and the CGC formation (Compound (I) 250 mg, aminoglycoside (kanamycin, gentamycin) 300 mg) was “− (if cell length was not greater than 50 μm and cell number was within the range from 0 to 4 in each visual field, it was deemed as CGC negative and was marked with “−”)”. For the same compound, the CGC formation (Compound (I) 250 mg, aminoglycoside (kanamycin, gentamycin) 400 mg) was “− (if cell length was not greater than 50 μm and cell number was within the range from 0 to 4 in each visual field, it was deemed as CGC negative and was marked with “−”)”, the CGC formation (Compound (I) 250 mg, aminoglycoside (kanamycin, gentamycin) 500 mg) was “+ (If cell length was more than 50 μm and cell number was more than 5 in each visual field, it was deemed as CGC positive and was marked with “+”)” and the CGC formation (Compound (I) 250 mg, macrolide (spiramycin) 300 mg) was “− (if cell length was not greater than 50 μm and cell number was within the range from 0 to 4 in each visual field, it was deemed as CGC negative and was marked with “−”)”. For the same compound, the CGC formation (Compound (I) 250 mg, macrolide (spiramycin) 500 mg) was “− (if cell length was not greater than 50 μm and cell number was within the range from 0 to 4 in each visual field, it was deemed as CGC negative and was marked with “−”)”, the CGC formation (Compound (I) 250 mg, macrolide (spiramycin) 700 mg) was “− (if cell length was not greater than 50 μm and cell number was within the range from 0 to 4 in each visual field, it was deemed as CGC negative and was marked with “−”)” and the CGC formation (Compound (I) 250 mg, macrolide (spiramycin) 900 mg) was “− (if cell length was not greater than 50 μm and cell number was within the range from 0 to 4 in each visual field, it was deemed as CGC negative and was marked with “−”)”. For the same compound, the CGC formation (Compound (I) 250 mg, macrolide (spiramycin) 1100 mg) was “− (if cell length was not greater than 50 μm and cell number was within the range from 0 to 4 in each visual field, it was deemed as CGC negative and was marked with “−”)”, the CGC formation (Compound (I) 250 mg, macrolide (spiramycin) 1300 mg) was “− (if cell length was not greater than 50 μm and cell number was within the range from 0 to 4 in each visual field, it was deemed as CGC negative and was marked with “−”)” and the CGC formation (Compound (I) 250 mg, macrolide (spiramycin) 1500 mg) was “+ (If cell length was more than 50 μm and cell number was more than 5 in each visual field, it was deemed as CGC positive and was marked with “+”)”. For the same compound, the CGC formation (Compound (I) 300 mg, aminoglycoside (kanamycin, gentamycin) 50 mg) was “− (if cell length was not greater than 50 μm and cell number was within the range from 0 to 4 in each visual field, it was deemed as CGC negative and was marked with “−”)”, the CGC formation (Compound (I) 300 mg, aminoglycoside (kanamycin, gentamycin) 100 mg) was “− (if cell length was not greater than 50 μm and cell number was within the range from 0 to 4 in each visual field, it was deemed as CGC negative and was marked with “−”)” and the CGC formation (Compound (I) 300 mg, aminoglycoside (kanamycin, gentamycin) 150 mg) was “− (if cell length was not greater than 50 μm and cell number was within the range from 0 to 4 in each visual field, it was deemed as CGC negative and was marked with “−”)”. For the same compound, the CGC formation (Compound (I) 300 mg, aminoglycoside (kanamycin, gentamycin) 200 mg) was “− (if cell length was not greater than 50 μm and cell number was within the range from 0 to 4 in each visual field, it was deemed as CGC negative and was marked with “−”)”, the CGC formation (Compound (I) 300 mg, aminoglycoside (kanamycin, gentamycin) 300 mg) was “− (if cell length was not greater than 50 μm and cell number was within the range from 0 to 4 in each visual field, it was deemed as CGC negative and was marked with “−”)” and the CGC formation (Compound (I) 300 mg, aminoglycoside (kanamycin, gentamycin) 400 mg) was “− (if cell length was not greater than 50 μm and cell number was within the range from 0 to 4 in each visual field, it was deemed as CGC negative and was marked with “−”)”. For the same compound, the CGC formation (Compound (I) 300 mg, aminoglycoside (kanamycin, gentamycin) 500 mg) was “− (if cell length was not greater than 50 μm and cell number was within the range from 0 to 4 in each visual field, it was deemed as CGC negative and was marked with “−”)”, the CGC formation (Compound (I) 300 mg, macrolide (spiramycin) 300 mg) was “− (if cell length was not greater than 50 μm and cell number was within the range from 0 to 4 in each visual field, it was deemed as CGC negative and was marked with “−”)” and the CGC formation (Compound (I) 300 mg, macrolide (spiramycin) 500 mg) was “− (if cell length was not greater than 50 μm and cell number was within the range from 0 to 4 in each visual field, it was deemed as CGC negative and was marked with “−”)”. The CGC formation (Compound (I) 300 mg, macrolide (spiramycin) 700 mg) was “− (if cell length was not greater than 50 μm and cell number was within the range from 0 to 4 in each visual field, it was deemed as CGC negative and was marked with “−”)”, the CGC formation (Compound (I) 300 mg, macrolide (spiramycin) 900 mg) was “− (if cell length was not greater than 50 μm and cell number was within the range from 0 to 4 in each visual field, it was deemed as CGC negative and was marked with “−”)” and the CGC formation (Compound (I) 300 mg, macrolide (spiramycin) 1100 mg) was “− (if cell length was not greater than 50 μm and cell number was within the range from 0 to 4 in each visual field, it was deemed as CGC negative and was marked with “−”)”. The CGC formation (Compound (I) 300 mg, macrolide (spiramycin) 1300 mg) was “− (if cell length was not greater than 50 μm and cell number was within the range from 0 to 4 in each visual field, it was deemed as CGC negative and was marked with “−”)” and the CGC formation (Compound (I) 300 mg, macrolide (spiramycin) 1500 mg) was “− (if cell length was not greater than 50 μm and cell number was within the range from 0 to 4 in each visual field, it was deemed as CGC negative and was marked with “−”)”.
